Measured values reported in patent US6949571B2, “1,2-dihydropyridine compounds, process for preparation of the same and use thereof” (Eisai Co., Ltd., priority 2000, dated 2005).
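Further: primary rat embryonic cortical neurons grown on an astrocyte layer in 96-well plates, used after at least 8 to 10 days in culture, Fura2-AM fluorescence ratio at 340/380 nm excitation.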

Each compound was assayed on AMPA receptor. Details: Table 1; primary culture of rat embryo cerebral cortex nerve cells, 2 μM AMPA, 1 μM MK-801.
CC(=O)NCc1cccc(-n2cc(-c3ccccn3)cc(-c3ccccc3C#N)c2=O)c1 [Example 23, 3-(2-Cyanophenyl)-5-(2-pyridyl)-1-(3-acetylaminomethylphenyl)-1,2-dihydropyridin-2-one] gave an IC50 of 200 nM.
For CS(=O)(=O)NCc1cccc(-n2cc(-c3ccccn3)cc(-c3ccccc3C#N)c2=O)c1 [Example 24, 3-(2-Cyanophenyl)-5-(2-pyridyl)-1-(3-methylsulfonylaminomethylphenyl)-1,2-dihydropyridin-2-one], the IC50 was 200 nM.
CC(=O)OCc1cccc(-n2cc(-c3ccccn3)cc(-c3ccccc3C#N)c2=O)c1 [Example 25, 3-(2-Cyanophenyl)-5-(2-pyridyl)-1-(3-acetoxymethylphenyl)-1,2-dihydropyridin-2-one] gave an IC50 of 30 nM.
CSc1ccc(-n2cc(-c3ccccn3)cc(-c3ccccc3C#N)c2=O)cc1 [Example 26, 3-(2-Cyanophenyl)-5-(2-pyridyl)-1-(4-methylthiophenyl)-1,2-dihydropyridin-2-one] showed an IC50 of 20 nM.
Compound CS(=O)(=O)c1ccc(-n2cc(-c3ccccn3)cc(-c3ccccc3C#N)c2=O)cc1 [Example 27, 3-(2-Cyanophenyl)-5-(2-pyridyl)-1-(4-methylsulfonylphenyl)-1,2-dihydropyridin-2-one] has an IC50 of 50 nM.
For N#Cc1ccccc1-c1cc(-c2ccsc2C=O)cn(-c2ccccc2)c1=O [Example 28, 3-(2-Cyanophenyl)-5-(2-formylthiophen-3-yl)-1-phenyl-1,2-dihydropyridin-2-one], the IC50 was 200 nM.
Work on CCN(CC)Cc1sccc1-c1cc(-c2ccccc2C#N)c(=O)n(-c2ccccc2)c1 [Example 29, 3-(2-Cyanophenyl)-5-(2-diethylaminomethylthiophen-3-yl)-1-phenyl-1,2-dihydropyridin-2-one] yielded an IC50 of 100 nM.
N#Cc1ccccc1-c1cc(-c2ccsc2CO)cn(-c2ccccc2)c1=O [Example 30, 3-(2-Cyanophenyl)-5-(2-hydroxymethylthiophen-3-yl)-1-phenyl-1,2-dihydropyridin-2-one] showed an IC50 of 40 nM.
For N#Cc1ccccc1-c1cc(-c2ccccn2)cn(Cc2ccccc2)c1=O [Example 31, 3-(2-Cyanophenyl)-5-(2-pyridyl)-1-benzyl-1,2-dihydropyridin-2-one], the IC50 was 100 nM.
N#Cc1ccccc1-c1cc(-c2ccccn2)c(=O)n(-c2ccccc2)c1 [Example 33, 3-(2-Pyridyl)-5-(2-cyanophenyl)-1-phenyl-1,2-dihydropyridin-2-one] gave an IC50 of 700 nM.
With N#Cc1ccccc1-c1cc(-c2cccnc2)cn(-c2ccccc2)c1=O [Example 34, 3-(2-Cyanophenyl)-5-(3-pyridyl)-1-phenyl-1,2-dihydropyridin-2-one] the IC50 was 3700 nM.
For N#Cc1ccccc1-c1cc(-c2ccncc2)cn(-c2ccccc2)c1=O [Example 35, 3-(2-Cyanophenyl)-5-(4-pyridyl)-1-phenyl-1,2-dihydropyridin-2-one], the IC50 was 3100 nM.
With N#Cc1ccccc1-c1cc(-c2ccccc2C#N)c(=O)n(-c2ccccc2)c1 [Example 36, 3-(2-Cyanophenyl)-5-(2-cyanophenyl)-1-phenyl-1,2-dihydropyridin-2-one] the IC50 was 1100 nM.
Work on O=c1c(-c2ccccc2)cc(-c2ccccc2)cn1-c1ccccn1 [Example 37, 3,5-Diphenyl-1-(2-pyridyl)-1,2-dihydropyridin-2-one] yielded an IC50 of 700 nM.
In the case of N#Cc1ccccc1-c1cc(-c2ccccc2)c(=O)n(-c2ccccn2)c1 [Example 38, 3-Phenyl-5-(2-cyanophenyl)-1-(2-pyridyl)-1,2-dihydropyridin-2-one], the IC50 is reported as 6300 nM.
With N#Cc1ccccc1-c1cc(-c2ccccc2)cn(-c2ccccn2)c1=O [Example 39, 3-(2-Cyanophenyl)-5-phenyl-1-(2-pyridyl)-1,2-dihydropyridin-2-one] the IC50 was 300 nM.
COc1ccccc1-c1cc(-c2ccccc2C#N)c(=O)n(-c2ccccc2)c1 [Example 42, 3-(2-Cyanophenyl)-5-(2-methoxyphenyl)-1-phenyl-1,2-dihydropyridin-2-one] gave an IC50 of 200 nM.
COc1ccc(-c2cc(-c3ccccc3C#N)c(=O)n(-c3ccccc3)c2)cc1OC [Example 43, 3-(2-Cyanophenyl)-5-(3,4-dimethoxyphenyl)-1-phenyl-1,2-dihydropyridin-2-one] was tested, and the IC50 was 500 nM.
With N#Cc1ccccc1-c1cc(-c2ccsc2)cn(-c2ccccc2)c1=O [Example 44, 3-(2-Cyanophenyl)-5-(thiophen-3-yl)-1-phenyl-1,2-dihydropyridin-2-one] the IC50 was 300 nM.
For N#Cc1ccccc1-c1cc(-c2ccccc2F)cn(-c2ccccc2)c1=O [Example 45, 3-(2-Cyanophenyl)-5-(2-fluorophenyl)-1-phenyl-1,2-dihydropyridin-2-one], the IC50 was 200 nM.
Compound N#Cc1ccccc1-c1cc(-c2cccs2)cn(-c2ccccc2)c1=O [Example 46, 3-(2-Cyanophenyl)-5-(thiophen-2-yl)-1-phenyl-1,2-dihydropyridin-2-one] has an IC50 of 400 nM.
Work on N#Cc1ccccc1-c1cc(-c2ccoc2)cn(-c2ccccc2)c1=O [Example 48] yielded an IC50 of 40 nM.
With N#Cc1ccccc1-c1cc(-c2ccco2)cn(-c2ccccc2)c1=O [Example 49] the IC50 was 200 nM.
COc1ccccc1-c1cc(-c2ccccc2C#N)c(=O)n(-c2cccnc2)c1 [Example 52, 3-(2-Cyanophenyl)-5-(2-methoxyphenyl)-1-(3-pyridyl)-1,2-dihydropyridin-2-one] gave an IC50 of 1100 nM.
Work on COc1ccccc1-c1cc(-c2ccccn2)cn(-c2ccccc2)c1=O [Example 55, 3-(2-Methoxyphenyl)-5-(2-pyridyl)-1-phenyl-1,2-dihydropyridin-2-one] yielded an IC50 of 800 nM.
COc1ccccc1-c1cc(-c2ccccn2)cn(-c2ccc(F)cc2)c1=O [Example 56, 3-(2-Methoxyphenyl)-5-(2-pyridyl)-1-(4-fluorophenyl)-1,2-dihydropyridin-2-one] showed an IC50 of 3200 nM.
Compound COC(=O)c1ccccc1-c1cc(-c2ccccn2)cn(-c2ccccc2)c1=O [Example 58, 3-(2-Methoxycarbonylphenyl)-5-(2-pyridyl)-1-phenyl-1,2-dihydropyridin-2-one] has an IC50 of 100 nM.
In the case of Cc1ccccc1-c1cc(-c2ccccn2)cn(-c2ccccc2)c1=O [Example 60, 3-(2-Tolyl)-5-(2-pyridyl)-1-phenyl-1,2-dihydropyridin-2-one], the IC50 is reported as 1700 nM.
For O=c1c(-c2ccccn2)cc(-c2ccccn2)cn1-c1ccccc1 [Example 62, 3-(2-Pyridyl)-5-(2-pyridyl)-1-phenyl-1,2-dihydropyridin-2-one], the IC50 was 3100 nM.
In the case of N#Cc1cccc(-c2cc(-c3ccccn3)cn(-c3ccccc3)c2=O)c1 [Example 63, 3-(3-Cyanophenyl)-5-(2-pyridyl)-1-phenyl-1,2-dihydropyridin-2-one], the IC50 is reported as 1100 nM.
In the case of N#Cc1ccc(-c2cc(-c3ccccn3)cn(-c3ccccc3)c2=O)cc1 [Example 64, 3-(4-Cyanophenyl)-5-(2-pyridyl)-1-phenyl-1,2-dihydropyridin-2-one], the IC50 is reported as 2800 nM.
O=c1c(-c2cccc(Cl)c2)cc(-c2ccccn2)cn1-c1ccccc1 [Example 65, 3-(3-Chlorophenyl)-5-(2-pyridyl)-1-phenyl-1,2-dihydropyridin-2-one] gave an IC50 of 600 nM.
Work on O=c1c(-c2ccc(Cl)cc2)cc(-c2ccccn2)cn1-c1ccccc1 [Example 66, 3-(4-Chlorophenyl)-5-(2-pyridyl)-1-phenyl-1,2-dihydropyridin-2-one] yielded an IC50 of 2400 nM.
In the case of O=c1c(-c2cccnc2)cc(-c2ccccn2)cn1-c1ccccc1 [Example 67, 3-(3-Pyridyl)-5-(2-pyridyl)-1-phenyl-1,2-dihydropyridin-2-one], the IC50 is reported as 6500 nM.
COc1cccc(-c2cc(-c3ccccn3)cn(-c3ccccc3)c2=O)c1 [Example 69, 3-(3-Methoxyphenyl)-5-(2-pyridyl)-1-phenyl-1,2-dihydropyridin-2-one] showed an IC50 of 900 nM.
COc1ccc(-c2cc(-c3ccccn3)cn(-c3ccccc3)c2=O)cc1 [Example 70, 3-(4-Methoxyphenyl)-5-(2-pyridyl)-1-phenyl-1,2-dihydropyridin-2-one] gave an IC50 of 3100 nM.
For O=c1c(-c2ccccc2F)cc(-c2ccccn2)cn1-c1ccccc1 [Example 71, 3-(2-Fluorophenyl)-5-(2-pyridyl)-1-phenyl-1,2-dihydropyridin-2-one], the IC50 was 50 nM.
O=c1c(-c2cccc(F)c2)cc(-c2ccccn2)cn1-c1ccccc1 [Example 72, 3-(3-Fluorophenyl)-5-(2-pyridyl)-1-phenyl-1,2-dihydropyridin-2-one] gave an IC50 of 700 nM.
Work on O=c1c(-c2ccc(F)cc2)cc(-c2ccccn2)cn1-c1ccccc1 [Example 73, 3-(4-Fluorophenyl)-5-(2-pyridyl)-1-phenyl-1,2-dihydropyridin-2-one] yielded an IC50 of 1200 nM.
COc1cccc(-n2cc(-c3ccccn3)cc(-c3ccccc3Cl)c2=O)c1 [Example 74, 3-(2-Chlorophenyl)-5-(2-pyridyl)-1-(3-methoxyphenyl)-1,2-dihydropyridin-2-one] gave an IC50 of 200 nM.
In the case of COc1ccncc1-c1cc(-c2ccccn2)cn(-c2ccccc2)c1=O [Example 77, 3-(4-Methoxy-3-pyridyl)-5-(2-pyridyl)-1-phenyl-1,2-dihydropyridin-2-one], the IC50 is reported as 20 nM.
Work on N#Cc1cccc(-c2cc(-c3ccccc3)cn(-c3cccnc3)c2=O)n1 [Example 79, 3-(6-Cyano-2-pyridyl)-5-phenyl-1-(3-pyridyl)-1,2-dihydropyridin-2-one] yielded an IC50 of 2600 nM.
COc1cccc(-n2cc(-c3ccccn3)cc(-c3cccnc3F)c2=O)c1 [Example 80, 3-(2-Fluoro-3-pyridyl)-5-(2-pyridyl)-1-(3-methoxyphenyl)-1,2-dihydropyridin-2-one] gave an IC50 of 300 nM.
Work on COc1ncccc1-c1cc(-c2ccccn2)cn(-c2ccccc2)c1=O [Example 81, 3-(2-Methoxy-3-pyridyl)-5-(2-pyridyl)-1-phenyl-1,2-dihydropyridin-2-one] yielded an IC50 of 2700 nM.
With O=c1c(-c2cccnc2F)cc(-c2ccccn2)cn1-c1ccc(F)cc1 [Example 82, 3-(2-Fluoro-3-pyridyl)-5-(2-pyridyl)-1-(4-fluorophenyl)-1,2-dihydropyridin-2-one] the IC50 was 800 nM.
CSc1ccc(-n2cc(-c3ccccn3)cc(-c3cccnc3F)c2=O)cc1 [Example 84, 3-(2-Fluoro-3-pyridyl)-5-(2-pyridyl)-1-(4-methylthiophenyl)-1,2-dihydropyridin-2-one] was tested, and the IC50 was 900 nM.
